Target: T1, HPK1 (Homo sapiens, UniProt Q92918)
T1 construct: A HiBiT tag was introduced by CRISPR on the N terminus of HPK1 in Jurkat cells; host or cells: Jurkat cells (ATCC TIB-152), monoclonal line with CRISPR knock-in of HiBiT at the endogenous HPK1 locus
Test: HPK1 Cellular HiBit Degradation Assay
Format: cell-based
Conditions: HiBiT HPK1 Jurkat cells, 24 hrs; for DC50: concentration at which 50% of HPK1 was remaining, read-out: DC50 Category; for Dmax: Jurkat, read-out: Dmax Category
In short: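 Degraders are dosed in an 11-point series (10 uM to 0.1 nM final) onto Jurkat cells carrying an N-terminal HiBiT tag on endogenous HPK1. After 24 hrs at 37° C, lysis-based HiBiT luminescence quantifies remaining HPK1 relative to vehicle, and curve fitting gives DC50 and Dmax.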

[1] = maximum degradation vs DMSO vehicle control

T1 sequence (Q92918 whole entry): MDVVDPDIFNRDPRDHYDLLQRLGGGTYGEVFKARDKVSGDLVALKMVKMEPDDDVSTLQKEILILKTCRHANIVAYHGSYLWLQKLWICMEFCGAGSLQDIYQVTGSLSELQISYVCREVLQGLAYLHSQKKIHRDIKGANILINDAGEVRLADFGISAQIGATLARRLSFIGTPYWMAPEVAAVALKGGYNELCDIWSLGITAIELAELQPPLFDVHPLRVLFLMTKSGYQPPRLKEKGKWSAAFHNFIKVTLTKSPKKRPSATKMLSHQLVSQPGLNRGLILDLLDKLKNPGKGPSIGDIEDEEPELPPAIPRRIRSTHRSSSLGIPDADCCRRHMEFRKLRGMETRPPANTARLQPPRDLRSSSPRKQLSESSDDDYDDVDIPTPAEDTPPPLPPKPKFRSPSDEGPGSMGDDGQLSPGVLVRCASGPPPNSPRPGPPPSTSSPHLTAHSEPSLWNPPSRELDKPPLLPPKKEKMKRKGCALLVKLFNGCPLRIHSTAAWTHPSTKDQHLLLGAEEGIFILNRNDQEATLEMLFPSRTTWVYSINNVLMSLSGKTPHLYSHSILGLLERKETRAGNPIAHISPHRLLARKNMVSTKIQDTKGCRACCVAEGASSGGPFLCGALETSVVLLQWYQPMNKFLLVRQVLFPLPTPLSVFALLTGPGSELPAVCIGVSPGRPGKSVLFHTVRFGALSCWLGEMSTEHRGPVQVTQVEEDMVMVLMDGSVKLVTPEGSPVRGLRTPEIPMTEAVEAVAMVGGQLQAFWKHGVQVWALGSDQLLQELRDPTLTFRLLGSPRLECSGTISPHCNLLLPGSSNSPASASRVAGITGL

Row | Structure (SMILES) | DC50 [nM] | Dmax [1] [%] | Dmax Category [1]
1 | CC(C)n1cnc2cc(-c3ccc4c(c3)N([C@H]3C[C@@H](N5CCCCC5)C3)C(=O)C43CCN(C(=O)C4CCN(C(=O)[C@H]5CC[C@H](N(C)c6cccc7c6C(=O)N(C6CCC(=O)NC6=O)C7=O)CC5)CC4)CC3)nc(NC3CC3)c21 (mixture of isomers) [Example 133, 2-[(3RS)-2,6-dioxopiperidin-3-yl]-4-{methyl[(1R,4R)-4-[4-({6-[4-(cyclopropylamino)-3-(propan-2-yl)-3H-imidazo[4,5-c]pyridin-6-yl]-2-oxo-1-[(1S,3S)-3-(piperidin-1-yl)cyclobutyl]-1,2-dihydrospiro[indole-3,4′-piperidin]-1′-yl}carbonyl)piperidine-1-carbonyl]cyclohexyl]amino}-2,3-dihydro-1H-isoindole-1,3-dione] | 500 to 1000 | 50 to 70 | –
2 | CC(C)n1cnc2cc(-c3ccc4c(c3)N([C@H]3C[C@@H](N5CCCCC5)C3)C(=O)C43CCN(C(=O)C4(C)CCN(C(=O)[C@H]5CC[C@H](Oc6ccc(N7CCC(=O)NC7=O)cn6)CC5)CC4)CC3)nc(Nc3ccncc3F)c21 [Example 109, 1-(6-{[(1R,4R)-4-{4-[(6-{4-[(3-Fluoropyridin-4-yl)amino]-3-(propan-2-yl)-3H-imidazo[4,5-c]pyridin-6-yl}-2-oxo-1-[(1S,3S)-3-(piperidin-1-yl)cyclobutyl]-1,2-dihydrospiro[indole-3,4′-piperidin]-1′-yl)carbonyl]-4-methylpiperidine-1-carbonyl}cyclohexyl]oxy}pyridin-3-yl)-1,3-diazinane-2,4-dione] | 100 to 500 | 50 to 70 | –
3 | CC(C)n1cnc2cc(-c3ccc4c(c3)N([C@H]3C[C@@H](N5CCCCC5)C3)C(=O)C43CCN(C(=O)C4CCN(C(=O)[C@H]5CC[C@H](N(C)c6ccc(C7CCC(=O)NC7=O)cn6)CC5)CC4)CC3)nc(Nc3ccccc3F)c21 (mixture of isomers) [Example 131, (3RS)-3-(6-{methyl[(1R,4R)-4-{4-[(6-{4-[(2-fluorophenyl)amino]-3-(propan-2-yl)-3H-imidazo[4,5-c]pyridin-6-yl}-2-oxo-1-[(1S,3S)-3-(piperidin-1-yl)cyclobutyl]-1,2-dihydrospiro[indole-3,4′-piperidin]-1′-yl)carbonyl]piperidine-1-carbonyl}cyclohexyl]amino}pyridin-3-yl)piperidine-2,6-dione] | < 100 | 70 to 85 | –
4 | CC(C)n1cnc2cc(-c3ccc4c(c3)N([C@H]3C[C@@H](N5CCCCC5)C3)C(=O)C43CCN(C(=O)[C@@H]4CCN(C(=O)[C@H]5CC[C@H](Nc6cccc7c6C(=O)N(C6CCC(=O)NC6=O)C7=O)CC5)C4)CC3)nc(NC3CC3)c21 (mixture of isomers) [Example 10, 2-[(3RS)-2,6-dioxopiperidin-3-yl]-4-{[(1R,4R)-4-[(3R)-3-({6-[4-(cyclopropylamino)-3-(propan-2-yl)-3H-imidazo[4,5-c]pyridin-6-yl]-2-oxo-1-[(1S,3S)-3-(piperidin-1-yl)cyclobutyl]-1,2-dihydrospiro[indole-3,4′-piperidin]-1′-yl}carbonyl)pyrrolidine-1-carbonyl]cyclohexyl]amino}-2,3-dihydro-1H-isoindole-1,3-dione] | < 100 | 70 to 85 | –
5 | CC(C)n1cnc2cc(-c3ccc4c(c3)N([C@H]3C[C@@H](N5CCCCC5)C3)C(=O)C43CCN(C(=O)[C@@H]4CCN(C(=O)[C@H]5CC[C@H](Nc6ccc(C7CCC(=O)NC7=O)cn6)CC5)C4)CC3)nc(NC3CC3)c21 (mixture of isomers) [Example 5, (3RS)-3-(6-{[(1R,4R)-4-[(3R)-3-({6-[4-(cyclopropylamino)-3-(propan-2-yl)-3H-imidazo[4,5-c]pyridin-6-yl]-2-oxo-1-[(1S,3S)-3-(piperidin-1-yl)cyclobutyl]-1,2-dihydrospiro[indole-3,4′-piperidin]-1′-yl}carbonyl)pyrrolidine-1-carbonyl]cyclohexyl]amino}pyridin-3-yl)piperidine-2,6-dione] | 100 to 500 | 70 to 85 | –
6 | CC(C)n1cnc2cc(-c3ccc4c(c3)N([C@H]3C[C@@H](N5CCCCC5)C3)C(=O)C43CCN(C(=O)C4(O)CCN(C(=O)C5CCN(c6ccc(C7CCC(=O)NC7=O)cc6)CC5)CC4)CC3)nc(NC3CC3)c21 (mixture of isomers) [Example 274, (3RS)-3-(4-{4-[4-({6-[4-(cyclopropylamino)-3-(propan-2-yl)-3H-imidazo[4,5-c]pyridin-6-yl]-2-oxo-1-[(1S,3S)-3-(piperidin-1-yl)cyclobutyl]-1,2-dihydrospiro[indole-3,4′-piperidin]-1′-yl}carbonyl)-4-hydroxypiperidine-1-carbonyl]piperidin-1-yl}phenyl)piperidine-2,6-dione] | < 100 | 70 to 85 | –
7 | CC(C)n1cnc2cc(-c3ccc4c(c3)N([C@H]3C[C@@H](N5CCCCC5)C3)C(=O)C43CCN(C(=O)[C@]4(C)CCN(C(=O)C5CCN(c6ccc(C7CCC(=O)NC7=O)cc6F)CC5)C4)CC3)nc(NC3CC3)c21 (mixture of isomers) [Example 147, (3RS)-3-(4-{4-[(3R)-3-({6-[4-(cyclopropylamino)-3-(propan-2-yl)-3H-imidazo[4,5-c]pyridin-6-yl]-2-oxo-1-[(1S,3S)-3-(piperidin-1-yl)cyclobutyl]-1,2-dihydrospiro[indole-3,4′-piperidin]-1′-yl}carbonyl)-3-methylpyrrolidine-1-carbonyl]piperidin-1-yl}-3-fluorophenyl)piperidine-2,6-dione] | 100 to 500 | > 85 | –
8 | Cc1cc(C2CCC(=O)NC2=O)cnc1N1CCC(C(=O)N2CCC(C)(C(=O)N3CCC4(CC3)C(=O)N(C3CC(N5CCCCC5)C3)c3cc(-c5cc6ncn(C(C)C)c6c(NC6CC6)n5)ccc34)CC2)CC1 (racemic) [Example 148, (3RS)-3-(6-{4-[4-({6-[4-(cyclopropylamino)-3-(propan-2-yl)-3H-imidazo[4,5-c]pyridin-6-yl]-2-oxo-1-[(1S,3S)-3-(piperidin-1-yl)cyclobutyl]-1,2-dihydrospiro[indole-3,4′-piperidin]-1′-yl}carbonyl)-4-methylpiperidine-1-carbonyl]piperidin-1-yl}-5-Methylpyridin-3-yl)piperidine-2,6-dione] | < 100 | – | B (B: >70%-<85%)
9 | CC(C)n1cnc2cc(-c3ccc4c(c3)N([C@H]3C[C@@H](N5CCCCC5)C3)C(=O)C43CCN(C(=O)C4(C)CCN(C(=O)C5CCN(c6ccc([C@@H]7CCC(=O)NC7=O)cn6)CC5)CC4)CC3)nc(OC3CCOCC3)c21 [Example 165, 3-(6-{4-[4-methyl-4-({6-[4-(oxan-4-yloxy)-3-(propan-2-yl)-3H-imidazo[4,5-c]pyridin-6-yl]-2-oxo-1-[(1S,3S)-3-(piperidin-1-yl)cyclobutyl]-1,2-dihydrospiro[indole-3,4′-piperidin]-1′-yl}carbonyl)piperidine-1-carbonyl]piperidin-1-yl}pyridin-3-yl)piperidine-2,6-dione] | < 100 | 70 to 85 | –
10 | CC(C)n1cnc2cc(-c3ccc4c(c3)N([C@H]3C[C@@H](N5CCCCC5)C3)C(=O)C43CCN(C(=O)[C@@H]4CCN(C(=O)[C@H]5CC[C@H](Nc6cccc7c6n(C)c(=O)n7C6CCC(=O)NC6=O)CC5)C4)CC3)nc(Nc3ccccc3F)c21 (mixture of isomers) [Example 144, (3RS)-3-(3-methyl-2-oxo-4-{[(1R,4R)-4-[(3R)-3-[(6-{4-[(2-fluorophenyl)amino]-3-(propan-2-yl)-3H-imidazo[4,5-c]pyridin-6-yl}-2-oxo-1-[(1S,3S)-3-(piperidin-1-yl)cyclobutyl]-1,2-dihydrospiro[indole-3,4′-piperidin]-1′-yl)carbonyl]pyrrolidine-1-carbonyl]cyclohexyl]amino}-2,3-dihydro-1H-1,3-benzodiazol-1-yl)piperidine-2,6-dione] | < 100 | 50 to 70 | –
11 | CC(C)n1cnc2cc(-c3ccc4c(c3)N([C@H]3C[C@@H](N5CCCCC5)C3)C(=O)C43CCN(C(=O)C4CCN(C(=O)[C@H]5CC[C@H](Oc6ccc(C7CCC(=O)NC7=O)cn6)CC5)CC4)CC3)nc(Nc3ccccc3F)c21 (mixture of isomers) [Example 62, (3RS)-3-(6-{[(1R,4R)-4-{4-[(6-{4-[(2-fluorophenyl)amino]-3-(propan-2-yl)-3H-imidazo[4,5-c]pyridin-6-yl}-2-oxo-1-[(1S,3S)-3-(piperidin-1-yl)cyclobutyl]-1,2-dihydrospiro[indole-3,4′-piperidin]-1′-yl)carbonyl]piperidine-1-carbonyl}cyclohexyl]oxy}pyridin-3-yl)piperidine-2,6-dione] | 100 to 500 | 50 to 70 | –
12 | CC(C)n1cnc2cc(-c3ccc4c(c3)N([C@H]3C[C@@H](N5CCCCC5)C3)C(=O)C43CCN(C(=O)[C@@H]4C[C@H]5CC[C@@H](C4)N5C(=O)C4CCN(c5ccc(C6CCC(=O)NC6=O)cn5)CC4)CC3)nc(NC3CC3)c21 (mixture of isomers) [Example 286, (3SR)-3-(6-{4-[(1S,3R,5RS)-3-({6-[4-(cyclopropylamino)-3-(propan-2-yl)-3H-imidazo[4,5-c]pyridin-6-yl]-2-oxo-1-[(1S,3S)-3-(piperidin-1-yl)cyclobutyl]-1,2-dihydrospiro[indole-3,4′-piperidin]-1′-yl}carbonyl)-8-azabicyclo[3.2.1]octane-8-carbonyl]piperidin-1-yl}pyridin-3-yl)piperidine-2,6-dione] | < 100 | 70 to 85 | –

From US12091426B2, “Bifunctional degraders of hematopoietic progenitor kinase and therapeutic uses thereof” (Nurix Therapeutics, Inc., priority 2021, dated 2024)
